# Data taken from US20090036387A1, “NOVEL CHEMICAL ENTITIES AFFECTING NEUROBLASTOMA TUMOR-INITIATING CELLS” (The Hospital for Sick Children, priority 2005, published 2009).
# Structures can show the parent of a compound that is named as a salt. Where two headings read alike, the source gives them in different places.
# System: NB12 tumor-initiating cells
# Assay: IC50 determination, Alamar Blue cell survival/growth assay
# Format: cell-based, human
# Protocol: FIG. 4A-4E, according to one embodiment of the invention, presents the IC50 values that were determined for the 64 selected candidate compounds. […] Tumor-initiating cells and normal cells were treated with 10 serial dilutions of compounds (5 μM to 9 nM). […] (FS90=normal cells; NB12=tumor-initiating cells).
# FIG. 6A-6FF, according to one embodiment of the invention, presents IC50 values for 32 selected compounds from the LOPAC and Prestwick collections. Tumor-initiating cells (NB12) and normal cells (FS90) were treated with 10 serial dilutions of compounds ranging from 5 μM to 9 nM. Cell survival/growth was assayed using Alamar Blue and the percentage of control Alamar Blue signal was plotted versus log[compound] nM. IC50 values for NB12 are given above each plot.
# FIG. 7A-7FF, according to one embodiment of the invention, represents IC50 values determined for 32 selected compounds from the LOPAC, Prestwick, and Spectrum collections. Tumor-initiating cells (NB12) and normal cells (FS90) were treated with 10 serial dilutions of compounds ranging from 5 μM to 9 nM. Cell survival/growth was assayed using Alamar Blue and the percentage of control Alamar Blue signal was plotted versus log[compound] nM (FS90 in dashed line, NB12 in bolded line). IC50 values for NB12 and FS90 are given beside each plot.
# To identify compounds that suppress the growth and survival of neuroblastoma (NB) tumor-initiating cells and not nontransformed normal cells (SKPs), a cell-based assay was established and used in which NB tumor-initiating cells from a multiple relapse NB patient (NB12, passage 6-17) and normal SKPs (FS90, passage 2-5) were tested in parallel to detect specific alterations of cell viability/proliferation. For each cell type, cells were passaged 5 days prior to screening. Three thousand (3000) cells in 100 µL SKPs growth media (B27, bFGF, EGF, P/S, fungizone in DMEM:F12 with 50% hFS conditioned media) were robotically plated in uncoated 96 well plates and treated with test compound for 30 hours, prior to a 24 hour incubation in the presence of Alamar Blue and subsequent fluorometric reading.
# Thirty-two (32) compounds were selected for IC50 determinations using FS90, FS105, and NB12. IC50 for the remaining compounds of interest will be tested at a later date (in combination with hits from additional libraries).
# [1] = Homo sapiens, NB12, 10 serial dilutions 5 μM to 9 nM, Alamar Blue, read-out: NB12 IC50
# [2] = NB12, 10 serial dilutions 5 μM to 9 nM, Alamar Blue, read-out: NB12 IC50
# [3] = Homo sapiens, read-out: NB12 IC50 (nM)
Compound,IC50 [1] [nM],also measured
CC[C@]1(O)C[C@H]2CN(CCc3c([nH]c4ccccc34)[C@@](C(=O)OC)(c3cc4c(cc3OC)N(C=O)[C@H]3[C@@](O)(C(=O)OC)[C@H](OC(C)=O)[C@]5(CC)C=CCN6CC[C@]43[C@@H]65)C2)C1 [Vincristine sulfate],62,–
CC(C)=CCCC1(C)C=Cc2c(O)c3c(c(CC=C(C)C)c2O1)OC12C(=CC4CC1C(C)(C)OC2(C/C=C(/C)C(=O)O)C4O)C3=O (centres unmarked) [DIHYD[…]],1690,–
CO[C@H]1[C@H](O)[C@H](O[C@H]2CC[C@@]3(C=O)[C@H](CC[C@@H]4[C@@H]3CC[C@]3(C)[C@@H](C5=CC(=O)OC5)CC[C@]43O)C2)O[C@@H](C)[C@@H]1O [PERUVOSIDE],222,–
Vinblastine sulfate salt,–,IC50 [2]: 113 nM
COc1cc([C@@H]2c3cc4c(cc3[C@@H](O[C@@H]3O[C@@H]5CO[C@@H](C)O[C@H]5[C@H](O)[C@H]3O)[C@H]3COC(=O)[C@H]23)OCO4)cc(OC)c1O [Etoposide],694,–
COc1ccc2c(c[n+](C)c3c4cc5c(cc4ccc23)OCO5)c1OC [Chelerythrine chloride],2550,–
CC(C)/N=c1\cc2n(-c3ccc(Cl)cc3)c3ccccc3nc-2cc1Nc1ccc(Cl)cc1 [Clofazimine],1420,–
C[n+]1cc2c3c(ccc2c2ccc4cc5c(cc4c21)OCO5)OCO3 [Sanguinarine chloride],–,IC50 [3]: 1800 nM
Cc1cccc(CN2CCN(C(c3ccccc3)c3ccc(Cl)cc3)CC2)c1 (centres unmarked) [MECLIZINE HYDROCHLORIDE],2540,–
CO[C@H]1C=C[C@@]23c4cc5c(cc4CN(C[C@@H]2O)[C@H]3C1)OCO5 [CRINAMINE],–,IC50 [2]: 1740 nM
C[C@@H]1O[C@@H](O[C@H]2C[C@@H](O)[C@]3(CO)[C@H]4[C@H](O)C[C@]5(C)[C@@H]([C@@H]6COC(=O)C6)CC[C@]5(O)[C@@H]4CC[C@]3(O)C2)[C@H](O)[C@H](O)[C@H]1O [Dihydroouabain],–,IC50 [2]: 1540 nM
C[C@@H]1O[C@@H](O[C@H]2CC[C@]3(C=O)[C@H]4CC[C@]5(C)[C@@H](C6=CC(=O)OC6)CC[C@]5(O)[C@@H]4CC[C@]3(O)C2)[C@H](O)[C@H](O)[C@H]1O [CONVALLATOXIN],73.2,–
Nc1nc(O)c2[nH]nnc2n1 [Azaguanine-8],–,IC50 [2]: 331 nM
COc1cc([C@@H]2c3cc4c(cc3[C@H](O)[C@H]3COC(=O)[C@H]23)OCO4)cc(OC)c1OC [Podophyllotoxin],135,–
COc1cc([C@@H]2c3cc4c(c(O)c3C[C@H]3COC(=O)[C@@H]32)OCO4)cc(OC)c1OC [beta-PELTATIN],–,IC50 [2]: 1950 nM
CCN(CC)Cc1cc(Nc2ccnc3cc(Cl)ccc23)ccc1O [Amodiaquin dihydrochloride dihydrate],790,–
C[C@H]1O[C@@H](O[C@H]2[C@@H](O)C[C@H](O[C@H]3[C@@H](O)C[C@H](O[C@H]4CC[C@@]5(C)[C@H](CC[C@@H]6[C@@H]5C[C@@H](O)[C@]5(C)[C@@H](C7=CC(=O)OC7)CC[C@]65O)C4)O[C@@H]3C)O[C@@H]2C)C[C@H](O)[C@@H]1O [Digoxin],–,IC50 [3]: 542 nM
Cc1cc(N)c2ccccc2[n+]1CCCCCCCCCC[n+]1c(C)cc(N)c2ccccc21 [Dequalinium dichloride],3620,–

Compound,IC50 [1] [nM],also measured
CC[N+](CC)(CC)CCOc1ccc(/C=C/c2ccccc2)cc1 [MG 624],848,–
CC(=O)[C@]1(O)Cc2c(O)c3c(c(O)c2[C@@H](O[C@H]2C[C@H](N)[C@H](O)[C@H](C)O2)C1)C(=O)c1ccccc1C3=O [Idarubicin],204,–
Dequalinium analog. C-14 linker,–,IC50 [2]: 1110 nM
O=C1c2c(O)ccc(O)c2C(=O)c2c(NCCNCCO)ccc(NCCNCCO)c21 [MITOXANTHRONE HYDROCHLORIDE],60.5,–
N=c1ccn2c(n1)O[C@H]1[C@H](O)[C@@H](CO)O[C@H]12 [Ancitabine hydrochloride],520,–
Cc1cc(C2CCCCC2)n(O)c(=O)c1 [CICLOPIROX OLAMINE],2050,–
C=C1C(=O)O[C@H]2C[C@@H]1C(OC(C)=O)C/C(C)=C/CC/C(C)=C/CC[C@@]2(C)O (some centres unmarked) [CRASSIN ACETATE],1950,–
CC(C)CCC[C@@H](C)[C@H]1CC[C@H]2[C@@H]3C[C@@H](O)[C@@]4(O)C[C@@H](O)CC[C@]4(C)[C@H]3CC[C@]12C [CHOLESTAN-3beta.5alpha.6beta-TRIOL],–,IC50 [2]: 2410 nM
CC(C)=CCC[C@]1(C)C=Cc2c(O)c3c(c(CC=C(C)C)c2O1)O[C@]12C(=C[C@@H]4C[C@H]1C(C)(C)O[C@@]2(C/C=C(/C)C(=O)O)C4=O)C3=O [GAMBOGIC ACID],1700,–
COc1cc([C@@H]2c3cc4c(cc3[C@@H](O[C@@H]3O[C@@H]5CO[C@@H](c6cccs6)O[C@H]5[C@H](O)[C@H]3O)[C@H]3COC(=O)[C@H]23)OCO4)cc(OC)c1O [TENIPOSIDE],706,–
CC[C@@]1(O)C[C@H](O[C@H]2C[C@H](N(C)C)[C@H](O)[C@H](C)O2)c2c(cc3c(c2O)C(=O)c2c(O)cccc2C3=O)[C@H]1C(=O)OC [AKLAVINE HYDROCHLORIDE],778,–
C[C@@H]1O[C@@H](O[C@H]2C[C@@H](O)[C@]3(CO)[C@H]4[C@H](O)C[C@]5(C)[C@@H](C6=CC(=O)OC6)CC[C@]5(O)[C@@H]4CC[C@]3(O)C2)[C@H](O)[C@H](O)[C@H]1O [Ouabain],123,–
CCN(CC)CCCC(C)Nc1c2ccc(Cl)cc2nc2ccc(OC)cc12 (centres unmarked) [Quinacrine dihydrochloride],2560,–
CO[C@H]1C[C@H](O[C@H]2CC[C@]3(C)[C@H]4CC[C@]5(C)[C@@H](C6=CC(=O)OC6)CC[C@]5(O)[C@@H]4CC[C@]3(O)C2)O[C@H](C)[C@H]1O [PERIPLOCYMARIN],2700,–
COc1cc(NS(C)(=O)=O)ccc1Nc1c2ccccc2nc2ccccc12 [AMSACRINE HYDROCHLORIDE],1210,–
CS(=O)(=O)CCCCN=C=S [ERYSOLIN],3280,–
CC[C@@]1(O)C(=O)OCc2c1cc1n(c2=O)Cc2cc3ccccc3nc2-1 [Camptothecine (S.+)],–,IC50 [2]: 183 nM
